Measured values published in article PMC8272148, “Antioxidant Serine-(NSAID) Hybrids with Anti-Inflammatory and Hypolipidemic Potency” (Molecules, 2021).
Several values for one entry are separate records, joined by “and”; a condition that tells them apart may be missing. Equal values may be shown once. Marks after values point to notes of the source that are not given here.

How the values were obtained:
[1] = test system: rat hepatic microsomal membrane lipid peroxidation; assay: Inhibition of rat hepatic microsomal membrane lipid peroxidation (ferrous ascorbate induced, TBA reactive material); type: biochemical; settings: after 45 min of incubation; for IC50: rat hepatic microsomal membrane; for Inhibition of Lipid Peroxidation, percent at 1 mM: 1 mM compound
Method: The peroxidation of the heat-inactivated rat hepatic microsomal fraction was induced by ferrous ascorbate. The studied compounds, in dimethylsulfoxide, were added at concentrations of 1 μM–1 mM. Aliquots were taken from the incubation mixture (37 °C) for 45 min. Lipid peroxidation was assessed spectrophotometrically (535/600 nm) as a 2-thiobarbituric acid reactive material. The incubation mixture and solvents were found not to interfere with the assay.

[2] = Interaction with the stable radical DPPH; settings: DPPH 200 μM, after 30 min
Method: Compounds, dissolved in absolute ethanol, at concentrations of 25–200 μM, were added to an equal volume of an ethanolic solution of DPPH (final concentration 200 μM) at room temperature (22 ± 2 °C). Absorbance (517 nm) was recorded after 30 min [26]. For the calculation of percent interaction, the residual absorbance of DPPH Ai (at a fixed concentration) after its interaction with the examined compounds (at various concentrations) was compared with the control absorbance Ao, without the addition of compounds, following the equation: (1) Percent interaction=100−(Ai/Ao×100)

[3] = test system: carrageenan-induced rat paw edema; assay: Carrageenan-induced rat paw edema; type: in vivo, Wistar rats; settings: ip, 0.15 mmol/kg i.p., 3.5 h after carrageenan, vs controls, read-out: % Edema Reduction
Method: An amount of 0.1 mL of an aqueous carrageenan solution (1% w/v) was injected into the hind paw of adult Wistar rats (6 rats were used for each compound). The tested compounds (in water with a few drops of Tween 80) were administered i.p. (0.15 mmol/kg) 5 min before the carrageenan administration. The produced edema, after 3.5 h, was estimated as paw weight increase.

soybean lipoxygenase 1-B = target: T1, soybean lipoxygenase 1-B (Glycine max, UniProt P08170); assay: In vitro inhibition of soybean lipoxygenase; type: biochemical; settings: linoleic acid (100 μM) as substrate, after 7 min of incubation; for inhibition at 100 µM: 100 μM compound, read-out: Lipoxygenase percent inhibition at 100 μM
T1 sequence (P08170 1-839): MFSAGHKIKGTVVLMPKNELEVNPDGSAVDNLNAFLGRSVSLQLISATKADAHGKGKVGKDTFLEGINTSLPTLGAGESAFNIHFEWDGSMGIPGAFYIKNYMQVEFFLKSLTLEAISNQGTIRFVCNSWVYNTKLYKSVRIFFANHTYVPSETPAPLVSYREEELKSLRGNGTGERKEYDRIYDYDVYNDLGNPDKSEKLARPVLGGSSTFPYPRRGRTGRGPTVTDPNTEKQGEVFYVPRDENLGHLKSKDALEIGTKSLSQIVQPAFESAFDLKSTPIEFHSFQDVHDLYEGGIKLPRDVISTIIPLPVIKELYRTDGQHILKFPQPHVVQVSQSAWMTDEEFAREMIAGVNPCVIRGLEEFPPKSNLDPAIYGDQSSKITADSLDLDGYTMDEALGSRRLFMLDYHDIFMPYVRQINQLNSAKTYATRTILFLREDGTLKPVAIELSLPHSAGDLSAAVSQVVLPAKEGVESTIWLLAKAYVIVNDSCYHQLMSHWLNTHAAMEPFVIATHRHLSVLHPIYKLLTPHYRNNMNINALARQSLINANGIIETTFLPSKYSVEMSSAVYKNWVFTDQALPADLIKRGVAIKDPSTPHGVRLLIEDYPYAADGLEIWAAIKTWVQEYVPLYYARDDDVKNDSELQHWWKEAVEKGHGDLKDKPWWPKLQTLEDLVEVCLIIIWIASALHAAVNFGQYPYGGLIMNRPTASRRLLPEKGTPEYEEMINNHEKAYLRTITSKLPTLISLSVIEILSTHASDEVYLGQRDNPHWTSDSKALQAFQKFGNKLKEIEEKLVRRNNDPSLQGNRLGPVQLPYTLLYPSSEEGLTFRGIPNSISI
Method: The reaction mixture contained the test compounds, dissolved in absolute ethanol (0.1 mL) at various concentrations, or the solvent (control, 0.1 mL), soybean lipoxygenase dissolved in 0.9% NaCl solution (250 u/mL, 0.2 mL) and sodium linoleate (100 μM) in Tris–HCl buffer, pH 9.0 (2.7 mL). The reaction was followed for 7 min at 28 °C, recording the absorbance of a conjugated diene structure at 234 nm, due to the formation of 13-hydroperoxy-linoleic acid. […] For the estimation of the type of inhibition, the above experiments were repeated, using sodium linoleate at 1 mM, which is higher than the saturating substrate concentration.

[4] = test system: Triton WR1339 (tyloxapol)-induced hyperlipidemia; assay: Triton WR1339 (tyloxapol)-induced hyperlipidemia in rats; type: in vivo, Wistar rats; settings: 150 μmol/kg i.p., rat plasma, 24 h, tyloxapol 200 mg/kg i.p.
Method: The examined compounds (0.15 mmol/kg) were administered i.p. one hour later. Blood was taken from the aorta after 24 h, for the determination of plasma total cholesterol, LDL cholesterol and triglyceride concentration, using commercial kits.

| Compound | IC50 [1] | Percent Interaction with DPPH ([2]; compound 25 μM) | Percent Interaction with DPPH ([2]; compound 50 μM) | Percent Interaction with DPPH ([2]; compound 100 μM) | Percent Interaction with DPPH ([2]; compound 200 μM) | inhibition in vivo at 150 µmol/kg [3] | inhibition at 100 µM (soybean lipoxygenase 1-B) | Inhibition of Lipid Peroxidation, percent at 1 mM [1] | % Reduction LDL-C (LDL cholesterol) [4] | % Reduction TC (total cholesterol) [4] | % Reduction TG (triglycerides) [4] | IC50 (soybean lipoxygenase 1-B) | Inhibition of Lipid Peroxidation, percent at 500 μM ([1]; 500 μM compound) | Inhibition of Lipid Peroxidation, percent at 50 μM ([1]; 50 μM compound) |
| --- | --- | --- | --- | --- | --- | --- | --- | --- | --- | --- | --- | --- | --- | --- |
| Cc1c(C)c2c(c(C)c1O)CCC(C)(C(=O)NC(CO)C(=O)O)O2 (centres unmarked) [Compound 1, 3-Hydroxy-2-(6-hydroxy-2,5,7,8-tetramethylchroman-2-carboxamido)propanoic acid] | 150 µM | 19.6% | 48.0% | 87.0% | 90.4% | 43% | 30% | – | – | – | – | – | – | – |
| CC(C)(C)c1cc(C(=O)NC(CO)C(=O)O)cc(C(C)(C)C)c1O (centres unmarked) [Compound 2, 2-(3,5-Di-tert-butyl-4-hydroxybenzamido)-3-hydroxypropanoic acid] | – | – | – | – | lower than 10% | 44% | 15% | 40%/1 mM | – | – | – | – | – | – |
| CC(C)(C)c1cc(/C=C/C(=O)NC(CO)C(=O)O)cc(C(C)(C)C)c1O (centres unmarked) [Compound 3, (E)-2-(3-(3,5-di-tert-butyl-4-hydroxyphenyl)acrylamido)-3-hydroxypropanoic acid] | 80 µM | 12.9% | 17.4% | 35.9% | 82.3% | 27% | 20% | – | – | – | – | – | – | – |
| CCOC(=O)C(CO)NC(=O)C1(C)CCc2c(C)c(O)c(C)c(C)c2O1 (centres unmarked) [Compound 4, Ethyl 3-hydroxy-2-(6-hydroxy-2,5,7,8-tetramethylchroman-2-carboxamido)propanoate] | 7.3 µM | 24.5% | 53.3% | 88.2% | 92.4% | 37% | 15% | – | 60.2 * % | 46.2 ** % | 53.4 ** % | – | – | – |
| CCOC(=O)C(CO)NC(=O)c1cc(C(C)(C)C)c(O)c(C(C)(C)C)c1 (centres unmarked) [Compound 5, Ethyl 2-(3,5-di-tert-butyl-4-hydroxybenzamido)-3-hydroxypropanoate] | 163 µM | – | – | – | lower than 10% | 47% | – | – | 66.0 ** % | 52.3 ** % | 62.0 ** % | 200 µM | – | – |
| CCOC(=O)C(CO)NC(=O)/C=C/c1cc(C(C)(C)C)c(O)c(C(C)(C)C)c1 (centres unmarked) [Compound 6, (E)-ethyl 2-(3-(3,5-di-tert-butyl-4-hydroxyphenyl)acrylamido)-3-hydroxypropanoate] | 22 µM | 17.9% | 21.2% | 48.6% | 88.7% | 44% | – | – | – | – | – | 156 µM | – | – |
| CCOC(=O)C(COC(=O)C(C)c1ccc(CC(C)C)cc1)NC(=O)C1(C)CCc2c(C)c(O)c(C)c(C)c2O1 (centres unmarked) [Compound 7, Ethyl 2-(6-hydroxy-2,5,7,8-tetramethylchroman-2-carboxamido)-3-((2-(4-isobutylphenyl)propanoyl)oxy)propanoate] | 3.4 µM | 22.6% | 54.2% | 89.0% | 91.6% | 45% | < 15% | – | – | – | – | – | – | – |
| CCOC(=O)C(COC(=O)C(C)c1ccc(CC(C)C)cc1)NC(=O)c1cc(C(C)(C)C)c(O)c(C(C)(C)C)c1 (centres unmarked) [Compound 8, Ehyl 2-(3,5-di-tert-butyl-4-hydroxybenzamido)-3-((2-(4-isobutylphenyl)propanoyl)oxy)propanoate] | – | – | – | 4.0% | 18.7% | 48% | – | – | – | – | – | 13 µM | 30%/500 μM | – |
| CCOC(=O)C(COC(=O)C(C)c1ccc(CC(C)C)cc1)NC(=O)/C=C/c1cc(C(C)(C)C)c(O)c(C(C)(C)C)c1 (centres unmarked) [Compound 9, (E)-ethyl 2-(3-(3,5-di-tert-butyl-4-hydroxyphenyl)acrylamido)-3-((2-(4-isobutylphenyl)propanoyl)oxy)propanoate] | – | 15.5% | 31.8% | 58.0% | 90.9% | 52% | – | – | 70% and 70.1 * % | 61% and 61.2 ** % | 52% and 52.1 ** % | 80 µM | – | 20%/50 μM |
| CCOC(=O)C(COC(=O)C(C)c1cccc(C(=O)c2ccccc2)c1)NC(=O)C1(C)CCc2c(C)c(O)c(C)c(C)c2O1 (centres unmarked) [Compound 10, Ethyl 3-((2-(3-benzoylphenyl)propanoyl)oxy)-2-(6-hydroxy-2,5,7,8-tetramethylchroman-2-carboxamido)propanoate] | 2.8 µM | 12.4% | 30.1% | 64.6% | 87.0% | 42% | 23% | – | – | – | – | – | – | – |
| CCOC(=O)C(COC(=O)C(C)c1cccc(C(=O)c2ccccc2)c1)NC(=O)c1cc(C(C)(C)C)c(O)c(C(C)(C)C)c1 (centres unmarked) [Compound 11, Ethyl 3-((2-(3-benzoylphenyl)propanoyl)oxy)-2-(3,5-di-tert-butyl-4-hydroxybenzamido)propanoate] | – | – | – | – | lower than 10% | 67% | – | 30%/1 mM | 51.2 ** % | 57.6 ** % | 44.5 * % | 86 µM | – | – |
| CC(C)Cc1ccc(C(C)C(=O)O)cc1 (centres unmarked) [Ibuprofen, ibuprofen, reference compound] | – | – | – | – | – | 36% | – | – | – | – | – | – | – | – |
| CC(C(=O)O)c1cccc(C(=O)c2ccccc2)c1 (centres unmarked) [Ketoprofen, ketoprofen, reference compound] | – | – | – | – | – | – | – | – | – | – | – | 220 µM | – | – |
| Cc1c(C)c2c(c(C)c1O)CCC(C)(C(=O)O)O2 (centres unmarked) [Trolox, 6-hydroxy-2,5,7,8-tetramethylchroman-2-carboxylic acid, reference compound] | 25 µM | 22.0% | 38.0% | 90.0% | 92.0% | – | – | – | – | – | – | > 300 µM | – | – |
